Results published in patent US9732093B2, “FLAP modulators” (JANSSEN PHARMACEUTICA NV, priority 2013, dated 2017).

Each molecule was assayed against human FLAP (Homo sapiens (Human), UniProt P20292) (assay: FLAP binding assay (HTRF format)). Conditions: human FLAP wild type membranes, HTRF format; Table 6 (additional runs).
Description: The ability of the compounds of the present invention to treat a FLAP-mediated disease and/or disorder, or associated symptoms or complications thereof, was determined using the following procedures. Binding assay data represent the average value obtained from two different assay plates, with samples run in duplicate on each plate. Human whole blood assay data represent a single replicate on an assay plate using whole blood from at least one healthy donor.
Data are expressed as a HTRF ratio.

human FLAP, sequence (P20292 whole entry): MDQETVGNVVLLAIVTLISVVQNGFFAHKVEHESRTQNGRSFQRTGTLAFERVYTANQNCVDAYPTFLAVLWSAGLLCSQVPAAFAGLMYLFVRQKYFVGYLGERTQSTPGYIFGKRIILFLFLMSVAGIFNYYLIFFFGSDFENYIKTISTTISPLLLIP

SMILES | Ki
Nc1cnc(-c2ccc(C3CCC3)c(OCC3CCCNC3)c2F)cn1 (racemic) [Example 299, racemic 5-[4-Cyclobutyl-2-fluoro-3-(piperidin-3-ylmethoxy)phenyl]pyrazin-2-amine] | 1960 nM
COc1c(C2CCC2)ccc(-c2cnc(N)cn2)c1F [A, 5-(4-Cyclobutyl-2-fluoro-3-methoxyphenyl)pyrazin-2-amine] | 52.6 nM
Nc1cnc(-c2ccc(C3CCC3)c(O)c2F)cn1 [B, 3-(5-Aminopyrazin-2-yl)-6-cyclobutyl-2-fluorophenol] | 83.9 nM
Nc1cnc(-c2ccc(C3CCC3)c(OCc3ccc(C(F)(F)F)cc3)c2F)cn1 [Compound 1, 5-(4-Cyclobutyl-2-fluoro-3-{[4-(trifluoromethyl)benzyl]oxy}phenyl)pyrazin-2-amine] | 62.8 nM
Nc1cnc(-c2ccc(C3CCC3)c(OCc3ccccc3C(F)(F)F)c2F)cn1 [Compound 3, 5-(4-Cyclobutyl-2-fluoro-3-{[2-(trifluoromethyl)benzyl]oxy}phenyl)pyrazin-2-amine] | 118 nM
Nc1cnc(-c2ccc(C3CCC3)c(OCc3cccc(C(=O)O)c3)c2F)cn1 [Compound 4, 3-{[3-(5-Aminopyrazin-2-yl)-6-cyclobutyl-2-fluorophenoxy]methyl}benzoic acid] | 5.8 nM
Nc1cnc(-c2ccc(C3CCC3)c(OCc3ccc(C(=O)O)cc3)c2F)cn1 [Compound 5, 4-{[3-(5-Aminopyrazin-2-yl)-6-cyclobutyl-2-fluorophenoxy]methyl}benzoic acid] | 10.2 nM
CS(=O)(=O)c1cccc(COc2c(C3CCC3)ccc(-c3cnc(N)cn3)c2F)c1 [Compound 6, 5-(4-Cyclobutyl-2-fluoro-3-{[3-(methylsulfonyl)benzyl]oxy}phenyl)pyrazin-2-amine] | 13.6 nM
CS(=O)(=O)c1ccc(COc2c(C3CCC3)ccc(-c3cnc(N)cn3)c2F)cc1 [Compound 7, 5-(4-Cyclobutyl-2-fluoro-3-{[4-(methylsulfonyl)benzyl]oxy}phenyl)pyrazin-2-amine] | 7.4 nM
CC(=O)c1ccc(COc2c(C3CCC3)ccc(-c3cnc(N)cn3)c2F)cc1 [Compound 12, 1-(4-{[3-(5-Aminopyrazin-2-yl)-6-cyclobutyl-2-fluorophenoxy]methyl}phenyl)ethanone] | ~89.9 nM
Nc1cnc(-c2ccc(C3CCC3)c(OCc3cccnc3)c2F)cn1 [Compound 13, 5-[4-Cyclobutyl-2-fluoro-3-(pyridin-3-ylmethoxy)phenyl]pyrazin-2-amine] | 27.1 nM
Nc1cnc(-c2ccc(C3CCC3)c(OCc3ccncc3)c2F)cn1 [Compound 14, 5-[4-Cyclobutyl-2-fluoro-3-(pyridin-4-ylmethoxy)phenyl]pyrazin-2-amine] | 22.6 nM
N#Cc1cccc(COc2c(C3CCC3)ccc(-c3cnc(N)cn3)c2F)c1 [Compound 16, 3-{[3-(5-Aminopyrazin-2-yl)-6-cyclobutyl-2-fluorophenoxy]methyl}benzonitrile] | 19.9 nM
NC(=O)c1cccc(COc2c(C3CCC3)ccc(-c3cnc(N)cn3)c2F)c1 [Compound 17, 3-{[3-(5-Aminopyrazin-2-yl)-6-cyclobutyl-2-fluorophenoxy]methyl}benzamide] | 12.5 nM
N#Cc1ccccc1COc1c(C2CCC2)ccc(-c2cnc(N)cn2)c1F [Compound 18, 2-{[3-(5-Aminopyrazin-2-yl)-6-cyclobutyl-2-fluorophenoxy]methyl}benzonitrile] | 59 nM
NC(=O)c1ccccc1COc1c(C2CCC2)ccc(-c2cnc(N)cn2)c1F [Compound 19, 2-{[3-(5-Aminopyrazin-2-yl)-6-cyclobutyl-2-fluorophenoxy]methyl}benzamide] | 3.8 nM
Nc1cnc(-c2ccc(C3CCC3)c(OCc3ccc(CC(=O)O)cc3)c2F)cn1 [Compound 23, (4-{[3-(5-Aminopyrazin-2-yl)-6-cyclobutyl-2-fluorophenoxy]methyl}phenyl)acetic acid] | 3.7 nM
Nc1cnc(-c2ccc(C3CCC3)c(OCc3ccccn3)c2F)cn1 [Compound 24, 5-[4-Cyclobutyl-2-fluoro-3-(pyridin-2-ylmethoxy)phenyl]pyrazin-2-amine] | 16.2 nM
CNS(=O)(=O)c1ccc(COc2c(C3CCC3)ccc(-c3cnc(N)cn3)c2F)cc1 [Compound 27, 4-{[3-(5-Aminopyrazin-2-yl)-6-cyclobutyl-2-fluorophenoxy]methyl}-N-methylbenzenesulfonamide] | 6.4 nM
Nc1cnc(-c2ccc(C3CCC3)c(OCc3ccc(F)cc3)c2F)cn1 [Compound 28, 5-{4-Cyclobutyl-2-fluoro-3-[(4-fluorobenzyl)oxy]phenyl}pyrazin-2-amine] | 66.2 nM
Nc1cnc(-c2ccc(C3CCC3)c(OCc3cccc(F)c3)c2F)cn1 [Compound 29, 5-{4-Cyclobutyl-2-fluoro-3-[(3-fluorobenzyl)oxy]phenyl}pyrazin-2-amine] | 24.6 nM
Nc1cnc(-c2ccc(C3CCC3)c(OCc3ccccc3F)c2F)cn1 [Compound 30, 5-{4-Cyclobutyl-2-fluoro-3-[(2-fluorobenzyl)oxy]phenyl}pyrazin-2-amine] | 33.5 nM

SMILES | Ki
Nc1cnc(-c2ccc(C3CCC3)c(OCc3ccc(F)c(F)c3)c2F)cn1 [Compound 33, 5-{4-Cyclobutyl-3-[(3,4-difluorobenzyl)oxy]-2-fluorophenyl}pyrazin-2-amine] | ~250 nM
Nc1cnc(-c2ccc(C3CCC3)c(OCc3cc(Cl)ccc3Cl)c2F)cn1 [Compound 38, 5-{4-Cyclobutyl-3-[(2,5-dichlorobenzyl)oxy]-2-fluorophenyl}pyrazin-2-amine] | ~250 nM
Nc1cnc(-c2ccc(C3CCC3)c(OCc3ccccc3C(=O)O)c2F)cn1 [Example 46, 2-{[3-(5-Aminopyrazin-2-yl)-6-cyclobutyl-2-fluorophenoxy]methyl}benzoic acid] | 6.9 nM
CC(C)(C)OC(=O)COc1c(C2CCC2)ccc(-c2cnc(N)cn2)c1F [Example 49, tert-Butyl [3-(5-aminopyrazin-2-yl)-6-cyclobutyl-2-fluorophenoxy]acetate] | ~134 nM
Nc1cnc(-c2ccc(C3CCC3)c(OCC(=O)O)c2F)cn1 [Example 50, [3-(5-Aminopyrazin-2-yl)-6-cyclobutyl-2-fluorophenoxy]acetic acid] | 787 nM
CS(=O)(=O)N1CCC(COc2c(C3CCC3)ccc(-c3cnc(N)cn3)c2F)CC1 [Example 68, 5-(4-Cyclobutyl-2-fluoro-3-{[1-(methylsulfonyl)piperidin-4-yl]methoxy}phenyl)pyrazin-2-amine] | 136 nM
Cc1ccnc(Oc2c(C3CCC3)ccc(-c3cnc(N)cn3)c2F)n1 [Example 69, 5-{4-Cyclobutyl-2-fluoro-3-[(4-methylpyrimidin-2-yl)oxy]phenyl}pyrazin-2-amine] | 14 nM
Cc1nc(COc2c(C3CCC3)ccc(-c3cnc(N)cn3)c2F)no1 [Example 70, 5-{4-Cyclobutyl-2-fluoro-3-[(5-methyl-1,2,4-oxadiazol-3-yl)methoxy]phenyl}pyrazin-2-amine] | 34.2 nM
Nc1cnc(-c2ccc(C3CCC3)c(OCC3CCCCC3)c2F)cn1 [Example 71, 5-[4-Cyclobutyl-3-(cyclohexylmethoxy)-2-fluorophenyl]pyrazin-2-amine] | 421 nM
Nc1cnc(-c2ccc(C3CCC3)c(OCC3CC3)c2F)cn1 [Example 72, 5-[4-Cyclobutyl-3-(cyclopropylmethoxy)-2-fluorophenyl]pyrazin-2-amine] | 23.7 nM
CCOC(=O)c1ccc(COc2c(C3CCC3)ccc(-c3cnc(N)cn3)c2F)o1 [Example 73, Ethyl 5-{[3-(5-aminopyrazin-2-yl)-6-cyclobutyl-2-fluorophenoxy]methyl}furan-2-carboxylate] | 275 nM
CC(C)(C)OC(=O)N1CCC(COc2c(C3CCC3)ccc(-c3cnc(N)cn3)c2F)CC1 [Example 74, tert-Butyl 4-{[3-(5-aminopyrazin-2-yl)-6-cyclobutyl-2-fluorophenoxy]methyl}piperidine-1-carboxylate] | 175 nM
Nc1cnc(-c2ccc(C3CCC3)c(OCc3cc(S(F)(F)(F)(F)F)ccc3F)c2F)cn1 [Example 77, 5-(4-Cyclobutyl-2-fluoro-3-{[2-fluoro-5-(pentafluoro-lambda˜6˜-sulfanyl)benzyl]oxy}phenyl)pyrazin-2-amine] | ~200 nM
Nc1cnc(-c2ccc(C3CCC3)c(OCC3CCC3)c2F)cn1 [Example 82, 5-[4-Cyclobutyl-3-(cyclobutylmethoxy)-2-fluorophenyl]pyrazin-2-amine] | 208 nM
Nc1cnc(-c2ccc(C3CCC3)c(OCc3ccccc3)c2F)cn1 [Example 83, 5-[3-(Benzyloxy)-4-cyclobutyl-2-fluorophenyl]-pyrazin-2-amine] | 44.5 nM
Nc1cnc(-c2ccc(C3CCC3)c(OCc3ccc(C(=O)O)o3)c2F)cn1 [Example 85, 5-{[3-(5-Aminopyrazin-2-yl)-6-cyclobutyl-2-fluorophenoxy]methyl}furan-2-carboxylic acid] | 28.1 nM
Cc1cc(N)nc(Oc2c(C3CCC3)ccc(-c3cnc(N)cn3)c2F)n1 [Example 86, 2-[3-(5-Aminopyrazin-2-yl)-6-cyclobutyl-2-fluorophenoxy]-6-methylpyrimidin-4-amine] | 6.2 nM
Nc1cnc(-c2ccc(C3CCC3)c(Oc3nccc(-c4ccccc4)n3)c2F)cn1 [Example 87, 5-{4-Cyclobutyl-2-fluoro-3-[(4-phenylpyrimidin-2-yl)oxy]phenyl}pyrazin-2-amine] | 2.1 nM
CSc1ccnc(Oc2c(C3CCC3)ccc(-c3cnc(N)cn3)c2F)n1 [Example 88, 5-(4-Cyclobutyl-2-fluoro-3-{[4-(methylsulfanyl)pyrimidin-2-yl]oxy}phenyl)pyrazin-2-amine] | 3.5 nM
Cc1cc(C)nc(Oc2c(C3CCC3)ccc(-c3cnc(N)cn3)c2F)n1 [Example 89, 5-{4-Cyclobutyl-3-[(4,6-dimethylpyrimidin-2-yl)oxy]-2-fluorophenyl}pyrazin-2-amine] | 5.3 nM
CC(C)c1ccnc(Oc2c(C3CCC3)ccc(-c3cnc(N)cn3)c2F)n1 [Example 90, 5-(4-Cyclobutyl-2-fluoro-3-{[4-(1-methylethyl)pyrimidin-2-yl]oxy}phenyl)pyrazin-2-amine] | 53.8 nM
